Results reported in ChEMBL document CHEMBL1154225, “Design and synthesis of bile acid-based amino sterols as antimicrobial agents” (Bioorg Med Chem Lett, 2009).
Values after ≈ are worked out from the molar mass of the structure shown.

Columns and labels:
Format in all cases: functional, organism-based
[1] = test system: Pseudomonas aeruginosa; test: Antibacterial activity against Pseudomonas aeruginosa ATCC BAA-427 after 24 hrs by NCCLS method
[2] = test system: Escherichia coli; test: Antibacterial activity against Escherichia coli ATCC 9637 after 24 hrs by NCCLS method
[3] = test system: Klebsiella pneumoniae; test: Antibacterial activity against Klebsiella pneumoniae ATCC 27736 after 24 hrs by NCCLS method
[4] = test system: Staphylococcus aureus; test: Antibacterial activity against Staphylococcus aureus ATCC 25923 after 24 hrs by NCCLS method
[5] = test system: Sporothrix schenckii; test: Antifungal activity against Sporothrix schenckii after 72 hrs by microbroth dilution technique
[6] = test system: Candida parapsilosis; test: Antifungal activity against Candida parapsilosis ATCC 22019 after 48 hrs by microbroth dilution technique; conditions: Lodderomyces parapsilosis, ATCC 22019, 48 h
[7] = test system: Candida albicans; test: Antifungal activity against Candida albicans after 48 hrs by microbroth dilution technique
[8] = test system: Aspergillus fumigatus; test: Antifungal activity against Aspergillus fumigatus AF-27 after 72 hrs by microbroth dilution technique; conditions: AF-27, 72 h
[9] = test system: Trichophyton mentagrophytes; test: Antifungal activity against Trichophyton mentagrophytes after 96 hrs by microbroth dilution technique
[10] = test system: Cryptococcus neoformans; test: Antifungal activity against Cryptococcus neoformans after 72 hrs by microbroth dilution technique
[11] = Pseudomonas aeruginosa, ATCC BAA-427, 24 h
[12] = Pseudomonas aeruginosa, ATCC BAA-427, 24 h, read-out: IC50
[13] = Escherichia coli, ATCC 9637, 24 h
[14] = Escherichia coli, ATCC 9637, 24 h, read-out: IC50
[15] = Klebsiella pneumoniae, ATCC 27736, 24 h
[16] = Klebsiella pneumoniae, ATCC 27736, 24 h, read-out: IC50

Molecule | MIC [1, 11] | IC50 [5] | MIC [5] | MIC [2, 13] | IC50 [2, 14] | IC50 [6] | MIC [6] | IC50 [7] | MIC [7] | MIC [3, 15] | IC50 ([4]; ATCC 25923, 24 h) | MIC ([4]; ATCC 25923, 24 h) | IC50 [8] | MIC [8] | IC50 [9] | MIC [9] | IC50 [10] | MIC [10] | IC50 [3, 16] | other results
GENTAMICIN | – | – | – | – | – | – | – | – | – | – | – | – | – | – | – | – | – | – | – | MIC [1]: 25 µg/mL; MIC [2]: 0.18 µg/mL; MIC [3]: 0.78 µg/mL; MIC [4]: 6.25 µg/mL
COC(=O)CC[C@@H](C)[C@H]1CC[C@H]2[C@@H]3CC[C@@H]4C[C@](O)(CN)CC[C@]4(C)[C@H]3C[C@H](O)[C@]12C | > 50 µg/mL | 12.6 µg/mL (≈ 29 µM) | 25 µg/mL (≈ 57.4 µM) | > 50 µg/mL | > 50 µg/mL | > 50 µg/mL | > 50 µg/mL | 50 µg/mL (≈ 115 µM) | 50 µg/mL (≈ 115 µM) | 50 µg/mL (≈ 115 µM) | 14.6 µg/mL (≈ 33.4 µM) | 25 µg/mL (≈ 57.4 µM) | 50 µg/mL (≈ 115 µM) | 50 µg/mL (≈ 115 µM) | 24.9 µg/mL (≈ 57.1 µM) | 25 µg/mL (≈ 57.4 µM) | 50 µg/mL (≈ 115 µM) | 50 µg/mL (≈ 115 µM) | – | IC50 [1, 12]: > 50 µg/mL; IC50 [3]: Not Active
COC(=O)CC[C@@H](C)[C@H]1CC[C@H]2[C@@H]3[C@H](O)C[C@@H]4C[C@](O)(CN=[N+]=[N-])CC[C@]4(C)[C@H]3C[C@H](O)[C@]12C | > 50 µg/mL | – | > 50 µg/mL | > 50 µg/mL | – | – | > 50 µg/mL | – | > 50 µg/mL | – | – | > 50 µg/mL | – | > 50 µg/mL | – | > 50 µg/mL | – | > 50 µg/mL | – | –
COC(=O)CC[C@@H](C)[C@H]1CC[C@H]2[C@@H]3[C@H](O)C[C@@H]4C[C@H](O)CC[C@]4(C)[C@H]3C[C@H](O)[C@]12C [CHOLIC ACID, METHYL ESTER] | > 50 µg/mL | – | > 50 µg/mL | > 50 µg/mL | – | – | > 50 µg/mL | – | > 50 µg/mL | – | – | > 50 µg/mL | – | > 50 µg/mL | – | > 50 µg/mL | – | > 50 µg/mL | – | –
COC(=O)CC[C@@H](C)[C@H]1CC[C@H]2[C@@H]3CC[C@@H]4C[C@](O)(CN=[N+]=[N-])CC[C@]4(C)[C@H]3C[C@H](O)[C@]12C | > 50 µg/mL | – | > 50 µg/mL | > 50 µg/mL | – | – | > 50 µg/mL | – | > 50 µg/mL | – | – | > 50 µg/mL | – | > 50 µg/mL | – | > 50 µg/mL | – | > 50 µg/mL | – | –
COC(=O)CC[C@@H](C)[C@H]1CC[C@H]2[C@@H]3[C@H](O)C[C@@H]4C[C@](O)(CN)CC[C@]4(C)[C@H]3C[C@H](O)[C@]12C | > 50 µg/mL | 50 µg/mL (≈ 111 µM) | 50 µg/mL (≈ 111 µM) | > 50 µg/mL | > 50 µg/mL | > 50 µg/mL | > 50 µg/mL | > 50 µg/mL | 50 µg/mL (≈ 111 µM) | 25 µg/mL (≈ 55.4 µM) | 18.4 µg/mL (≈ 40.8 µM) | 25 µg/mL (≈ 55.4 µM) | > 50 µg/mL | > 50 µg/mL | 21.4 µg/mL (≈ 47.4 µM) | 25 µg/mL (≈ 55.4 µM) | > 50 µg/mL | > 50 µg/mL | 18.4 µg/mL (≈ 40.8 µM) | IC50 [1, 12]: > 50 µg/mL
COC(=O)CC[C@@H](C)[C@H]1CC[C@H]2[C@@H]3[C@H](O)C[C@@H]4C[C@](O)(CNCCN)CC[C@]4(C)[C@H]3C[C@H](O)[C@]12C | 50 µg/mL (≈ 101 µM) | 18.3 µg/mL (≈ 37 µM) | 25 µg/mL (≈ 50.5 µM) | 25 µg/mL (≈ 50.5 µM) | 17.2 µg/mL (≈ 34.8 µM) | 16.4 µg/mL (≈ 33.2 µM) | 25 µg/mL (≈ 50.5 µM) | 24 µg/mL (≈ 48.6 µM) | 25 µg/mL (≈ 50.5 µM) | 6.25 µg/mL (≈ 12.6 µM) | 4.12 µg/mL (≈ 8.33 µM) | 6.25 µg/mL (≈ 12.6 µM) | 50 µg/mL (≈ 101 µM) | 50 µg/mL (≈ 101 µM) | 6.25 µg/mL (≈ 12.6 µM) | 6.25 µg/mL (≈ 12.6 µM) | 14.6 µg/mL (≈ 29.4 µM) | 25 µg/mL (≈ 50.5 µM) | 4.68 µg/mL (≈ 9.46 µM) | IC50 [1]: Not Active
COC(=O)CC[C@@H](C)[C@H]1CC[C@H]2[C@@H]3CC[C@@H]4C[C@H](O)CC[C@]4(C)[C@H]3C[C@H](O)[C@]12C [METHYL DEOXYCHOLATE] | > 50 µg/mL | – | > 50 µg/mL | > 50 µg/mL | – | – | > 50 µg/mL | – | > 50 µg/mL | – | – | > 50 µg/mL | – | > 50 µg/mL | – | > 50 µg/mL | – | > 50 µg/mL | – | –
COC(=O)CC[C@@H](C)[C@H]1CC[C@H]2[C@@H]3CC[C@@H]4C[C@](O)(CNCCN)CC[C@]4(C)[C@H]3C[C@H](O)[C@]12C | 50 µg/mL (≈ 104 µM) | 3.36 µg/mL (≈ 7.02 µM) | 12.5 µg/mL (≈ 26.1 µM) | 50 µg/mL (≈ 104 µM) | – | 18.4 µg/mL (≈ 38.4 µM) | 25 µg/mL (≈ 52.2 µM) | 25 µg/mL (≈ 52.3 µM) | > 50 µg/mL | 6.25 µg/mL (≈ 13.1 µM) | 5.14 µg/mL (≈ 10.7 µM) | 6.25 µg/mL (≈ 13.1 µM) | 8.14 µg/mL (≈ 17 µM) | 12.5 µg/mL (≈ 26.1 µM) | 6.25 µg/mL (≈ 13.1 µM) | 6.25 µg/mL (≈ 13.1 µM) | 17.2 µg/mL (≈ 36 µM) | 25 µg/mL (≈ 52.2 µM) | 5.21 µg/mL (≈ 10.9 µM) | IC50 [1]: Not Active; IC50 [2]: Not Active
OC(Cn1cncn1)(Cn1cncn1)c1ccc(F)cc1F [FLUCONAZOLE] | – | – | 2 µg/mL (≈ 6.53 µM) | – | – | – | 1 µg/mL (≈ 3.27 µM) | – | 0.5 µg/mL (≈ 1.63 µM) | – | – | – | – | 2 µg/mL (≈ 6.53 µM) | – | 1 µg/mL (≈ 3.27 µM) | – | 1.9 µg/mL (≈ 6.2 µM) | – | –
